In publication PMC12439480, “Dimeric CCK2R radiotheranostic tracers synergize with mTOR inhibition for enhanced tumor therapy” (Theranostics, 2025):
Numbered stars: 1 amine (or outer) side, 2 acyl side, 3 side chain; on linkers, the order of the positions; unused ones are H or OH. Square brackets hold non-standard residues; d marks the D form. Peptide text beside a SMILES is read from it. * marks the point of attachment. DOTA = O=C(O)CN1CCN(CC(=O)O)CCN(CC(=O)*)CCN(CC(=O)O)CC1; d(γGlu) = O=C(O)[C@@H](CCC(=O)[*:2])N[*:1]; 1Nal = N[C@@H](Cc1cccc2ccccc12)C(=O)O; NMeNle = CCCC[C@H](NC)C(=O)O; PEG4 = NCCOCCOCCOCCOCCC(=O)O

System: AR42J tumor-bearing mice
Experiment: in vivo
Parameters: species or system BALB/c nude mice
Conditions: mouse, 1 h
Description: To complement the imaging studies, biodistribution experiments were performed. AR42J tumor-bearing mice were intravenously injected with 3.7 MBq of [^68Ga]Ga-DOTA-CCK2R-dimer (≈ 120 pmol) or [^68Ga]Ga-DOTA-CCK-66 (≈ 210 pmol) (dissolved in 200 μL of saline; n = 3/group). The mice were sacrificed at 30, 60, and 120 min post-injection, and the tissues of interest were excised, weighed, and analyzed for radioactivity using a γ-counter. For blocking studies, a 400-fold excess of the lead compound was co-administered, and the mice were sacrificed at 1 h post-injection.
All animal studies were approved by the Ethics Committee of Fudan University
Shanghai Cancer Center (No. FUSCC-IACUC- S2023- 0003). Five-week-old female
BALB/c nude mice were purchased from Shanghai SLAC Laboratory Animal
Company. To establish cell-derived xenograft (CDX) models, 1 × 10⁶ AR42J cells
(100 μL) were subcutaneously inoculated into the right shoulder of each mouse. […]

Bladder uptake: 1.15 ± 1.21 %ID/g | Kidney uptake: 12.68 ± 3.71 %ID/g | Liver uptake: 0.96 ± 0.26 %ID/g | Stomach uptake: 1.49 ± 0.64 %ID/g
SMILES: CCCC[C@@H](C(=O)N[C@@H](CC(=O)O)C(=O)N[C@@H](Cc1cccc2ccccc12)C(N)=O)N(C)C(=O)[C@H](Cc1c[nH]c2ccccc12)NC(=O)CCOCCOCCOCCOCCNC(=O)CC[C@@H](NC(=O)CN1CCN(CC(=O)O)CCN(CC(=O)O)CCN(CC(=O)O)CC1)C(=O)O [[68Ga]Ga-DOTA-CCK-66, metal not drawn, reference compound] ({DOTA-d(γGlu)-PEG4}-W[NMeNle]D[1Nal]-NH2)
